# Laboratory results taken from patent US20260159520A1, “HETEROBIFUNCTIONAL COMPOUNDS AND METHODS OF TREATING DISEASE” (Halda Therapeutics OpCo, Inc., priority 2022, published 2026).
# What was measured:
# [1] = molecular target: T1, androgen receptor (Homo sapiens, UniProt P10275); assay: Binding affinity to androgen receptor ([3H]methyltrienolone radioligand, cell cytosol); conditions: Table 6
# T1 construct: endogenous in cells; host or cells: unnamed cells (cytosol fraction)
# T1 sequence (P10275 1-920): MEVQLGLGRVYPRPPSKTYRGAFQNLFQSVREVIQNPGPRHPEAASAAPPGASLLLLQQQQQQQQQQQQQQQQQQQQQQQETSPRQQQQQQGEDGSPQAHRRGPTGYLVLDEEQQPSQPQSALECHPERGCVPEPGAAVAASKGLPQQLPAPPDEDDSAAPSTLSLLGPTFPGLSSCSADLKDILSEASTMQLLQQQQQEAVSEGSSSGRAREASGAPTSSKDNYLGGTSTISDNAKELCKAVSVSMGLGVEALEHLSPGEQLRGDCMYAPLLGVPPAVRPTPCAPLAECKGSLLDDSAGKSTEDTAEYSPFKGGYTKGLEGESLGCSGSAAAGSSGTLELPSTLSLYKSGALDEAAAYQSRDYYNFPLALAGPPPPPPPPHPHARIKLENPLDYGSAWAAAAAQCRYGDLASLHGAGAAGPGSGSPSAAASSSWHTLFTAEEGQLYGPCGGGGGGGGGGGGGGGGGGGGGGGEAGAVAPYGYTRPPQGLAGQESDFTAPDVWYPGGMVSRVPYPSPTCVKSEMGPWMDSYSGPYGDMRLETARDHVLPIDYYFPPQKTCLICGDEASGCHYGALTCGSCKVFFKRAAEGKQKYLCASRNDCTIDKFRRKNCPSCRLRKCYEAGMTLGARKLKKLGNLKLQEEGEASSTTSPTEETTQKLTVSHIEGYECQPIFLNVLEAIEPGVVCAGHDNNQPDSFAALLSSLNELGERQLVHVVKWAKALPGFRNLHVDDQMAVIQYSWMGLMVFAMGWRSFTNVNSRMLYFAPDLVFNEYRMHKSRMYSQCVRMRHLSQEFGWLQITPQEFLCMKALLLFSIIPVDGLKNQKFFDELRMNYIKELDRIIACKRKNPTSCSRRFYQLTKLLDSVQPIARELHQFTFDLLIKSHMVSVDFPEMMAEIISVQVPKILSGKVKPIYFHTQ
# Experimental: Fractions of cell cytosol ([…]) were incubated for 24 hr at 4° C. with 1 nM [^3H]methyltrienolone in the absence or presence of the test compound in a buffer containing 25 mM Hepes-Tris (pH 7.4), 1 mM EDTA, 10 mM Na2MoO4, 2 mM DTT, 5 μM triamcinolone acetonide, and 10% glycerol. Nonspecific binding was determined in the presence of 1 μM testosterone. Following incubation, the samples were filtered rapidly under vacuum through glass fiber filters (GF/B, Packard) presoaked with 0.3% PEI and rinsed several times with ice-cold 50 mM Tris-HCl using a 96-sample cell harvester (Unifilter, Packard). The filters were dried then counted for radioactivity in a scintillation counter (Topcount, Packard) using a scintillation cocktail (Microscint 0, Packard). The results are expressed as a percent inhibition of the control radioligand specific binding. The standard reference compound is testosterone, which is tested in each experiment at several concentrations to obtain a competition curve from which its IC50 is calculated.
# [2] = molecular target: T2, CDK2 (Homo sapiens, UniProt P24941); assay: KdELECT binding assay, CDK2; conditions: CDK2, Table 8
# T2 construct: made in house; host or cells: E. coli BL21-derived host (T7 phage) or HEK-293 ('BEK-293' [sic])
# Experimental: Compounds were tested using a KdELECT. Kinase-tagged T7 phage strains were prepared in an E. coli host derived from the BL21 strain. E. coli were grown to log-phase and infected with T7 phage and incubated with shaking at 32° C. until lysis. The lysates were centrifuged and filtered to remove cell debris. The remaining kinases were produced in BEK-293 cells and subsequently tagged with DNA for qPCR detection. Streptavidin-coated magnetic beads were treated with biotinylated small molecule ligands for 30 minutes at room temperature to generate affinity resins for kinase assays. The liganded beads were blocked with excess biotin and washed with blocking buffer (SeaBlock (Pierce), 1% BSA, 0.05% Tween 20, 1 mM DTT) to remove unbound ligand and to reduce non-specific binding. Binding reactions were assembled by combining kinases, liganded affinity beads, and test compounds in 1× binding buffer (20% SeaBlock, 0.17×PBS, 0.05% Tween 20, 6 mM DTT). Test compounds were prepared as 111× stocks in 100% DMSO. Kd values were determined using an 11-point 3-fold compound dilution series with three DMSO control points. All compounds for Kd measurements are distributed by acoustic transfer (non-contact dispensing) in 100% DMSO. The compounds were then diluted directly into the assays such that the final concentration of DMSO was 0.9%. […] The kinase concentration in the eluates was measured by qPCR.
# [3] = molecular target: T3, CDK1 (Homo sapiens, UniProt P06493); assay: KdELECT binding assay, CDK1; conditions: CDK1, Table 9
# T3 construct: made in house; host or cells: E. coli BL21-derived host (T7 phage) or HEK-293 ('BEK-293' [sic])
# Experimental: Compounds were tested using a KdELECT. Kinase-tagged T7 phage strains were prepared in an E. coli host derived from the BL21 strain. E. coli were grown to log-phase and infected with T7 phage and incubated with shaking at 32° C. until lysis. The lysates were centrifuged and filtered to remove cell debris. The remaining kinases were produced in BEK-293 cells and subsequently tagged with DNA for qPCR detection. Streptavidin-coated magnetic beads were treated with biotinylated small molecule ligands for 30 minutes at room temperature to generate affinity resins for kinase assays. The liganded beads were blocked with excess biotin and washed with blocking buffer (SeaBlock (Pierce), 1% BSA, 0.05% Tween 20, 1 mM DTT) to remove unbound ligand and to reduce non-specific binding. Binding reactions were assembled by combining kinases, liganded affinity beads, and test compounds in 1× binding buffer (20% SeaBlock, 0.17×PBS, 0.05% Tween 20, 6 mM DTT). Test compounds were prepared as 111× stocks in 100% DMSO. Kd values were determined using an 11-point 3-fold compound dilution series with three DMSO control points. All compounds for Kd measurements are distributed by acoustic transfer (non-contact dispensing) in 100% DMSO. The compounds were then diluted directly into the assays such that the final concentration of DMSO was 0.9%. All reactions performed in polypropylene 384-well plate. Each was a final volume of 0.02 mL. The assay plates were incubated at room temperature with shaking for 1 hour and the affinity beads were washed with wash buffer (lx PBS, 0.05% Tween 20). The beads were then re-suspended in elution buffer (lx PBS, 0.05% Tween 20, 0.5 μM nonbiotinylated affinity ligand) and incubated at room temperature with shaking for 30 minutes. The kinase concentration in the eluates was measured by qPCR.
# T3 sequence (P06493 whole entry): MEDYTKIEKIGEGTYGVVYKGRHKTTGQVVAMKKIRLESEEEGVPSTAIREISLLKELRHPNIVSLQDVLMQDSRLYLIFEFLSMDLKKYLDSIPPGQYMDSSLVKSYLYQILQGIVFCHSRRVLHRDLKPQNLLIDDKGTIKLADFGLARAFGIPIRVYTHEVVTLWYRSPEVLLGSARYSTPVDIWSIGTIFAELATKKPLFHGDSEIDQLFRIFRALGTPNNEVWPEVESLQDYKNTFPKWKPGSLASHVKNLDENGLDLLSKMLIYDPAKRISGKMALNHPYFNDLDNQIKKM
Compound,Kd [1] [µM],Kd [2] [µM],Kd [3] [µM]
CCc1cnn2c(NCc3ccc(OCCOCCOCCOC4CCN(c5ncc(C(=O)N[C@H]6C(C)(C)[C@H](Oc7ccc(C#N)c(Cl)c7)C6(C)C)cn5)CC4)nc3)cc(N3CCCC[C@H]3CCO)nc12 [Compound I-8],< 0.05,> 2.5,> 2.5
CCc1cnn2c(NCc3ccc(COCCN4CCN(CC5CCN(c6ncc(C(=O)N[C@H]7C(C)(C)[C@H](Oc8ccc(C#N)c(Cl)c8)C7(C)C)cn6)CC5)CC4)nc3)cc(N3CCCC[C@H]3CCO)nc12 [Compound I-42],< 0.05,–,> 2.5
CCc1cnn2c(NCc3ccc(OCC4CCN(CC5CCN(c6ncc(C(=O)N[C@H]7C(C)(C)[C@H](Oc8ccc(C#N)c(Cl)c8)C7(C)C)cn6)CC5)CC4)nc3)cc(N3CCCC[C@H]3CCO)nc12 [Compound I-51],–,–,> 2.5
